Where two headings read alike, the source gives them in different places.
How the values were obtained:
Human Plasmin = Human Plasmin (Homo sapiens, UniProt P00747); assay: Inhibitory effect on ester-hydrolyzing activity of human plasmin (TAMe substrate); format: biochemical; details: for inhibition at 1000 µM: read-out: Plasmin percent inhibition; for IC50: Table 4 bracketed value, read-out: Plasmin ID50
Experimental: The enzyme-inhibitory activities in vitro of the compounds of this invention were measured by the following procedure according to the method of M. Muramatsu et al. [[…]. […] After the incubation, 1.5 ml of 2 M alkaline hydroxylamine was added and thoroughly mixed, and allowed to stand at room temperature for 15 minutes. […] It was measured by using 0.1 ml of plasmin (generated by activation of plasminogen with streptokinase) and TAMe as substrate following the method described in (1).

Human Cl Esterase = biological target: T1, Human Cl Esterase (Homo sapiens, UniProt P09871); assay: Inhibitory effect on ester-hydrolyzing activity of human Cl esterase (ATEe substrate); format: biochemical; details: for inhibition at 1000 µM: read-out: Cl-esterase percent inhibition; for IC50: pH 7.4, Table 4 bracketed value, read-out: Cl-esterase ID50
T1 sequence (P09871 438-688 limits assumed): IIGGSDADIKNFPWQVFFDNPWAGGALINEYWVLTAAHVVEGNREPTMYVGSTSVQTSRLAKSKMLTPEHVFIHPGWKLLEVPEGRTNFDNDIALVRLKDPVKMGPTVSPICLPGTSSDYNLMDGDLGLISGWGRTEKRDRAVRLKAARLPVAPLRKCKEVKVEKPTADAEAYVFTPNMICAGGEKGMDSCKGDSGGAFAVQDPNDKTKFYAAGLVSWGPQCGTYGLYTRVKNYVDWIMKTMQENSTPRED
T1 sequence (P09871 16-437 partner limits assumed): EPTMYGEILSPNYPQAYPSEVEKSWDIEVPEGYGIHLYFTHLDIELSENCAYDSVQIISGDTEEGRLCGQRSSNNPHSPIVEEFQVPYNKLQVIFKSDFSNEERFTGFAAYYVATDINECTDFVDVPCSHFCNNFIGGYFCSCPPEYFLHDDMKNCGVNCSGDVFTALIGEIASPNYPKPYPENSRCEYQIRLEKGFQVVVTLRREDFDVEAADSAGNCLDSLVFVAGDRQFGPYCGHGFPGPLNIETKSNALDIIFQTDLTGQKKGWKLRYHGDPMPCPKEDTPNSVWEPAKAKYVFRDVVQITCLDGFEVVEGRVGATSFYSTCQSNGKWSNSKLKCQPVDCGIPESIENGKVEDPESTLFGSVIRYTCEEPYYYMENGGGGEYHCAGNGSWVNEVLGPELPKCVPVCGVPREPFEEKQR
Experimental: It was measured by using 0.1 ml of Cl esterase, 0.1 ml of 0.02 M sodium phosphate buffer solution (pH 7.4 ) and 10 μmoles of ATEe (acetyltyrosine ethyl ester) as substrate following the method described in (1).

Trypsin = biological target: T2, Trypsin (Bos taurus, UniProt P00760); assay: Inhibitory effect on ester-hydrolyzing activity of trypsin (TAMe substrate); format: biochemical; details: for inhibition at 1000 µM: read-out: Trypsin percent inhibition
T2 sequence (P00760 24-246): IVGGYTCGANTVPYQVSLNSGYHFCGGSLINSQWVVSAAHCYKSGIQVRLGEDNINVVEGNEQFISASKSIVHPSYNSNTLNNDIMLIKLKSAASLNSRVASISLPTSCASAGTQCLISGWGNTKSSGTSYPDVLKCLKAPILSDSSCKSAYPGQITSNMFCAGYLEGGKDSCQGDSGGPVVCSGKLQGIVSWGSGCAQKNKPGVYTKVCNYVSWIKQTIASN
Experimental: (§1) The enzyme-inhibitory activities in vitro of the compounds of this invention were measured by the following procedure according to the method of M. Muramatsu et al. [[…]. […] After the incubation, 1.5 ml of 2 M alkaline hydroxylamine was added and thoroughly mixed, and allowed to stand at room temperature for 15 minutes.

Bovine Thrombin = Bovine Thrombin (Bos taurus, UniProt P00735); assay: Inhibitory effect on ester-hydrolyzing activity of bovine thrombin (TAMe substrate); format: biochemical; details: for inhibition at 1000 µM: at 10^-3 M, in vitro, TAMe, read-out: Thrombin percent inhibition
Experimental: The enzyme-inhibitory activities in vitro of the compounds of this invention were measured by the following procedure according to the method of M. Muramatsu et al. [M. Muramatsu, T. Onishi, S. Makino, Y. Hayashi and S. Fujii: J. Biochem., 58, 214 (1965)]
To 0.1 ml of trypsin (5 μg/ml) were added 0.5 ml of 0.1 M borate buffer solution (pH 8.6) containing 10 mM CaCl2, and 0.1 ml of a varying concentration of an inhibitor solution, and preincubation was carried out at 37° C. for 5 minutes. Then, 10 μmoles of the substrate, TAMe (tosylarginine methyl ester), was added, and incubation was preformed at 37° C. for 30 minutes.
After the incubation, 1.5 ml of 2 M alkaline hydroxylamine was added and thoroughly mixed, and allowed to stand at room temperature for 15 minutes. Then, 1.0 ml of each of 18% trichloroacetic acid, 4 N HCl and 10% FeCl3 was added and thoroughly mixed. If necessary, the mixture was centrifuged at 3,000 rpm for 10 minutes, and the absorbance of the supernatant was measured at 530 nm.
It was measured by using 0.4 ml of bovine thrombin […], 0.02 M sodium phosphate buffer solution (pH 7.4) and TAMe as substrate following the method described in (1).

thrombin = assay: Inhibitory activity on thrombus formation: protection from lethal thrombin injection in mice; format: in vivo, mice (ddY strain); details: 10 minutes before thrombin 300 NIH units/kg i.v., No. 91 in 2.5% gum arabic
Experimental: White male mice (ddY strain), 4 weeks age and weighing 18-27 g, were used throughout the experiments. […] The intravenous injection of 300 NIH units/kg of thrombin over 30 seconds into mice was lethal to all animals. The compounds were intraperitoneally administered in doses of 1, 10, and 100 mg/kg in saline unless otherwise described.
Compounds were intraperitoneally administered 10 minutes before thrombin injection. Compound No. 91 was dissolved in 2.5% gum arabic.

Human Plasma Kallikrein = Human Plasma Kallikrein (Homo sapiens, UniProt P03952); assay: Inhibitory effect on ester-hydrolyzing activity of human plasma kallikrein (TAMe substrate); format: biochemical; details: for IC50: Table 4 bracketed value, read-out: Kallikrein ID50; for inhibition at 1000 µM: read-out: Kallikrein percent inhibition
Experimental: as §1

[1] = in vitro, TAMe, pH 8.6, 37° C., Table 4 bracketed value, read-out: Trypsin ID50

Chain of Human Plasmin (P00747 581-810 limits assumed): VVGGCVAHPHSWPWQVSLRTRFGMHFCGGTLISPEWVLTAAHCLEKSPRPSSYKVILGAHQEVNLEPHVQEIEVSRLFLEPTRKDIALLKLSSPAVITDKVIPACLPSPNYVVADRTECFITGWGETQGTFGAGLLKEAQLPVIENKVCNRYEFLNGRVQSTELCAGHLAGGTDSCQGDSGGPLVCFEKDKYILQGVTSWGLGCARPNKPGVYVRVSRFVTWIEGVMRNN
Chain of Human Plasmin (P00747 97-580 partner limits assumed): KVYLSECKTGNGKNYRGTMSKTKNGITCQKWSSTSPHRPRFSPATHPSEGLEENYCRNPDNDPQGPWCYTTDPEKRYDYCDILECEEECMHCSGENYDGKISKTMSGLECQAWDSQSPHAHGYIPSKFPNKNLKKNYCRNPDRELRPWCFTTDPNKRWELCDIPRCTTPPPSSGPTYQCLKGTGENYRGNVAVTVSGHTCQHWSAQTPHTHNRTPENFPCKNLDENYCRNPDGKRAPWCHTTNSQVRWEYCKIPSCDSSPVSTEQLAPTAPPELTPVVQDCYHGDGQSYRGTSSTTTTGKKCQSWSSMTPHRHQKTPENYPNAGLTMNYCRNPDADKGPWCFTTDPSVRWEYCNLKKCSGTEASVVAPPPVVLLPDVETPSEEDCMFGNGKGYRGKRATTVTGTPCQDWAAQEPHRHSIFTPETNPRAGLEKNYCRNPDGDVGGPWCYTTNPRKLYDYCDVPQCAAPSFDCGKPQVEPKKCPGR
Chain of Human Plasma Kallikrein (P03952 391-638 limits assumed): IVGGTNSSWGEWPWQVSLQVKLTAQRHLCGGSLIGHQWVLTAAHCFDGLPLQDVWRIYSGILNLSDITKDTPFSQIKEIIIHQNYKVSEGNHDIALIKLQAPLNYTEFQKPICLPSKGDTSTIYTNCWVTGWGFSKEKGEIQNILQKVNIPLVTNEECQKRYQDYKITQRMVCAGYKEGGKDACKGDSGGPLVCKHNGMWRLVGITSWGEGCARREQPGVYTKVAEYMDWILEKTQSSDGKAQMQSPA
Chain of Human Plasma Kallikrein (P03952 20-390 partner limits assumed): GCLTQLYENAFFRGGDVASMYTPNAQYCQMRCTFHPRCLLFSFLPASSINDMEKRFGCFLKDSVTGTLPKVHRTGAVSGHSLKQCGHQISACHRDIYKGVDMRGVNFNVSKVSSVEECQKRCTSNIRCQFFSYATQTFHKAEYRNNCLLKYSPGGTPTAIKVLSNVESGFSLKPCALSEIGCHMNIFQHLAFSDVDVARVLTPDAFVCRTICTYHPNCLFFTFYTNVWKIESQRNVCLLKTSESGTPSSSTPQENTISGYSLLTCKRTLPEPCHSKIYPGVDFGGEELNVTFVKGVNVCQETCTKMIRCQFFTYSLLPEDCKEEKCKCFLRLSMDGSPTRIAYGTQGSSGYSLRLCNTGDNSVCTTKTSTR

Row | SMILES | inhibition at 1000 µM (Human Plasmin; at 10^-3 M, in vitro, TAMe) [%] | inhibition at 1000 µM (Human Cl Esterase) [%] | IC50 (Trypsin; [1]) [µM] | IC50 (Bovine Thrombin) [µM] | IC50 (Human Plasmin; in vitro, TAMe) [µM] | IC50 (Human Cl Esterase; in vitro, ATEe) [µM] | IC50 (Human Plasma Kallikrein; in vitro, TAMe) [µM] | inhibition at 1000 µM (Human Plasma Kallikrein; at 10^-3 M, in vitro, TAMe) [%] | further results
1 | COC(=O)c1ccc(OC(=O)C2CCCc3ccc(N)cc32)cc1 (stereo not drawn) [Compound 91] | 40.7 | 27.4 | 17 | 210 |  |  |  |  | % protective (thrombin; 1 mg/kg i.p.): 0%; Survived / Tested (thrombin; 1 mg/kg i.p.): 0/10; % protective (thrombin; 10 mg/kg i.p.): 0%; Survived / Tested (thrombin; 10 mg/kg i.p.): 0/10; % protective (thrombin; 100 mg/kg i.p.): 20%; Survived / Tested (thrombin; 100 mg/kg i.p.): 2/10
2 | N#Cc1ccc(OC(=O)C2CCCc3ccc(NC(=N)N)cc32)cc1 (stereo not drawn) [Compound 163] |  |  | 130 | 17 | 73 | 400 | 52 |  | 
3 | Cc1ccc(OC(=O)C2CCCc3ccc(NC(=N)N)cc32)cc1 (stereo not drawn) [Compound 136] |  |  |  | 900 |  | 540 |  |  | inhibition at 1000 µM (Human Plasmin): < 3.2%; inhibition at 1000 µM (Trypsin): 17.5%; inhibition at 1000 µM (Human Plasma Kallikrein): < 3.2%
4 | CN(C)C(=O)COC(=O)c1ccc(OC(=O)C2CCCc3c(N)cccc32)cc1 (stereo not drawn) [Compound 72] | < 3.2 | < 3.2 | 25 | 120 |  |  | 1000 |  | 
5 | COc1ccc(OC(=O)C2CCCc3ccc(NC(=N)N)cc32)cc1.Cl (stereo not drawn) [Compound 138, p-methoxyphenyl 7-guanidino-1,2,3,4-tetrahydro-1-naphthoate hydrochloride] | 17 | 39 | 1000 | 32 |  |  | 280 |  | % protective (thrombin; 1 mg/kg i.p.): 0%; Survived / Tested (thrombin; 1 mg/kg i.p.): 0/10; % protective (thrombin; 10 mg/kg i.p.): 20%; Survived / Tested (thrombin; 10 mg/kg i.p.): 2/10; % protective (thrombin; 100 mg/kg i.p.): 30%; Survived / Tested (thrombin; 100 mg/kg i.p.): 3/10
6 | CN(C)C(=O)COC(=O)CCc1ccc(OC(=O)C2CCCc3ccc(NC(=N)N)cc32)cc1 (stereo not drawn) [Compound 158] |  |  |  | 100 | 400 | 700 | 420 |  | inhibition at 1000 µM (Trypsin): 29.1%
7 | CCOC(=O)COC(=O)c1ccc(OC(=O)C2CCCc3c(N)cccc32)cc1 (stereo not drawn) [Compound 70] | 26.2 |  | 52 |  |  |  |  | 14.1 | inhibition at 1000 µM (Human Cl Esterase; at 10^-3 M, in vitro, ATEe): < 3.2%; inhibition at 1000 µM (Bovine Thrombin): 22%
8 | COC(=O)c1cccc(OC(=O)C2CCCc3ccc(N)cc32)c1 (stereo not drawn) [Compound 92] | < 3.2 | 27.3 | 98 | 1000 |  |  |  | < 3.2 | 
9 | CCOC(=O)c1ccc(OC(=O)C2CCCc3c(N)cccc32)cc1.Cl (stereo not drawn) [Compound 66, p-ethoxycarbonylphenyl 5-amino-1,2,3,4-tetrahydro-1-naphthoate hydrochloride] | 4.4 | < 3.2 |  |  |  |  |  | 19.9 | inhibitory activity on plasmin (Human Plasmin; text of Examples): no inhibitory activity; inhibitory activity on Cl-esterase (Human Cl Esterase; text of Examples): no inhibitory activity; IC50 (Trypsin; in vitro, text of Examples, read-out: ID50, tosylarginine methyl ester hydrolyzing activity of trypsin): 88 µM; inhibition at 1000 µM (Bovine Thrombin): 16.5%; inhibitory activity on thrombin (Bovine Thrombin; text of Examples): no inhibitory activity; inhibitory activity on kallikrein (Human Plasma Kallikrein; text of Examples): no inhibitory activity
10 | CCOC(=O)c1ccc(OC(=O)C2CCCc3ccc(N)cc32)cc1 (stereo not drawn) [Compound 94] | 16.6 |  | 46 |  |  |  |  | 25 | inhibition at 1000 µM (Human Cl Esterase; at 10^-3 M, in vitro, ATEe): 3.2%; inhibition at 1000 µM (Bovine Thrombin): 42.9%
11 | COc1cccc(OC(=O)C2CCCc3ccc(NC(=N)N)cc32)c1 (stereo not drawn) [Compound 139] |  |  |  | 260 | 1000 | 450 |  |  | inhibition at 1000 µM (Trypsin): 46%; inhibition at 1000 µM (Human Plasma Kallikrein): 36.7%
12 | N#Cc1ccc(OC(=O)C2CCCc3c(NC(=N)N)cccc32)cc1 (stereo not drawn) [Compound 162] | 49 | 26.4 |  | 1000 |  |  | 1000 |  | inhibition at 1000 µM (Trypsin; at 10^-3 M, in vitro, TAMe): 44.2%
13 | NC(=O)COC(=O)c1ccc(OC(=O)C2CCCc3ccc(N)cc32)cc1 (stereo not drawn) [Compound 99] |  |  | 88 | 66 | 300 | 540 |  |  | inhibition at 1000 µM (Human Plasma Kallikrein): 17.2%
14 | NC(=O)COC(=O)c1ccc(OC(=O)C2CCCc3c(N)cccc32)cc1 (stereo not drawn) [Compound 71] |  | 30.6 | 31 | 62 | 54 |  |  | 23.4 | 
15 | N=C(N)Nc1ccc2c(c1)C(C(=O)Oc1ccc(OC(=O)C3CCCc4ccc(NC(=N)N)cc43)cc1)CCC2 (stereo not drawn) [Compound 160] |  |  |  | 54 | 100 | 430 | 230 |  | inhibition at 1000 µM (Trypsin): 40.5%
